How the values were obtained:
[1] = system: purified human monocytes; test: Monocyte cytokine production upon exposure to RSV and recombinant RSV viruses
Description: (§1) Human PBMC were isolated from leukopaks using Histopaque (Sigma, St. Louis, Mo.). Monocytes were isolated using the Monocyte Isolation Kit II (positive selection for CD3, CD7, CD16, CD19, CD56, CD123, and glycophorin A, MiltenyiBiotec) with Macs LS separation columns. Remaining cells were >90% monocytes by anti-CD14 staining and forward- and side-light scatter analysis using FACScan (Becton-Dickinson, Elmhust, Ill.).
(§2) Purified monocytes were stimulated with LPS (1 μg) or purified proteins F or Glycoprotein (3 μg; kindly provided by V. Randolph, Wyeth Lederle, N.Y.). All rRSV variants were grown in Hep-2 cells and Vero cells as described^29,30, and used at 10^5 pfu multiplicity of infection (MOI)=1] for stimulations. Lysate of Hep-2 cells and Vero cells were used as control stimuli. UV-inactivation was performed as described elsewhere19^5 and lack of virus replication confirmed in cell culture. […] An additional peptide encoding the conserved 13 amino acid region upstream of the GCRR (164-176)^3 was also used in add-back experiments. […] The GCRR and control peptides included biotin-SGSG at the amino termini. The anti-CX3CR1 antibody was kindly provided by P. Murphy, NIAID, NIH and used as described^18. […] Cytokines were measured in supernatant fluids 18 hours after stimulation by immunoassay following manufacturer's instructions (Biosource Europe S. A, Belgium).

[2] = system: NF-κB; test: NF-κB nuclear translocation immunoassay in human monocytes; type: cell-based; details: 60 min; purified protein or live virus stimulation
Description: Human monocytes were stimulated with purified RSV F and/or Glycoprotein (1 μg each) or indicated viruses for 60 minutes. After stimulation nuclear extracts were obtained using a hypotonic lysis buffer (10 mM HEPES (pH 7.9), 1.5 mM MgCl2, 10 mM KCl, 0.5 mM DTT, 0.1% Triton X-100 and protease inhibitors) and an extraction buffer (20 mM HEPES (pH 7.9), 1.5 mM MgCl2, 0.42 M NaCl, 0.5 mM DTT, 0.2 mM EDTA, 1.0% Igepal CA-630, 25% (v/v) glycerol and protease inhibitors). NF-κB subunits p50 and p65 were detected by a modified immunoassay using a double stranded biotinylated oligonucleotide containing the consensus sequence for NF-κB binding (5′-GGGACTTTCC-3′) [SEQ ID NO:______] (Chemicon International, Germany).

[3] = system: purified human monocytes; test: F protein-mediated cytokine production by purified human monocytes; details: for effect on F-induced IL-6 production: added to F-treated monocytes
Description: as §1
(§3) Purified monocytes were stimulated with LPS (1 μg) or purified proteins F or Glycoprotein (3 μg; kindly provided by V. Randolph, Wyeth Lederle, N.Y.). All rRSV variants were grown in Hep-2 cells and Vero cells as described^29,30, and used at 10^5 pfu multiplicity of infection (MOI)=1] for stimulations. Lysate of Hep-2 cells and Vero cells were used as control stimuli. UV-inactivation was performed as described elsewhere19^5 and lack of virus replication confirmed in cell culture. […] An additional peptide encoding the conserved 13 amino acid region upstream of the GCRR (164-176)^3 was also used in add-back experiments. […] The GCRR and control peptides included biotin-SGSG at the amino termini. The anti-CX3CR1 antibody was kindly provided by P. Murphy, NIAID, NIH and used as described^18. For supplemental experiments, we used peptidoglycan (PGN; Fluka, Sigma) at 10 μg and CpGDNA (GTCGTT; HyCult Biotechnology) at 1 mM. Cytokines were measured in supernatant fluids 18 hours after stimulation by immunoassay following manufacturer's instructions (Biosource Europe S. A, Belgium).

[4] = system: RSV; details: Glycoprotein added to F protein during immunization; cited from earlier work
[5] = system: TLR2; test: PGN-stimulated cytokine production by human monocytes; details: co-incubation
Description: as §1, §2

[6] = system: murine alveolar macrophages; test: Cytokine production by murine alveolar macrophages incubated with purified proteins and recombinant viruses; type: cell-based; details: macrophages from naive mice
Description: Alveolar macrophages were obtained by bronchoalveolar lavage (BAL) followed by magentic bead depletion (Militenyi Biotec, Germany). Macrophages were incubated with brefeldin A for six hours, fixed with commercially available fixation and permeabilization reagents, CYTOFIX/CYTOPERM (Becton Dickinson, Elmhust, Ill.), and stained using phycoerythrin (PE)-conjugated anti-IL-6 antibody (Becton Dickinson). Data was analyzed using side and forward scatter plots and FACScan (Becton Dickinson).

[7] = system: TLR9; test: CpGDNA-stimulated cytokine production by human monocytes; details: co-incubation
Description: as §1, §2

[8] = system: TLR4; test: Endotoxin (LPS)-mediated cytokine production by human monocytes; details: for effect on LPS-induced cytokine production (IL-6, IL-1β): added to LPS-treated monocytes
Description: as §1, §3

G^164-176: Glycoprotein peptide encompassing amino acids 164-176, conserved 13 amino acid segment upstream of the GCRR
modulation of IL-6 production by ΔG ([1]; peptide added with ΔG): failed to modulate IL-6 production

Glycoprotein: purified RSV attachment Glycoprotein from subgroup A (A2 strain)
NF-κB nuclear translocation [2]: decreased
decrease in IL-6 production compared to monocytes incubated with F alone ([3]; F + Glycoprotein, P<0.01): approximately 1.5 log
effect on F-induced IL-1β or IL-10 in supernatant fluids ([3]; not shown): inhibitory effect similar to that observed for Glycoprotein on F-induced IL-6 production
IL-6 production by monocytes incubated with purified protein alone ([3]; supernatant fluids, 18 hours, immunoassay): low
IL-6 response of mG-infected cells after add-back to culture media ([1]; added to mG-infected monocytes): restored to levels similar to those elicited by RSV
decrease in production of interferon-γ upon RSV challenge vs immunization with F alone [4]: up to 70 fold
cytokine production elicited by TLR2 agonist PGN [5]: inhibited
cytokine production in murine alveolar macrophages [6]: modulating the innate responses elicited by both purified F and RSV
cytokine production elicited by TLR9 agonist CpGDNA [7]: inhibited

GlycoproteinA peptide (residues 273-288): control peptide within the Glycoprotein mucin-like domain [reference compound]
effect on F-induced IL-6 production [3]: inhibitory effect was not observed

HFEVFNFVPCSICSNNPTCWAICKRI [GCRR peptide]
effect on IL-10 production of monocytes incubated with LPS [8]: affected production of IL-10
effect on LPS-induced cytokine production (IL-6, IL-1β) [8]: dose-dependent inhibition of cytokine production
effect on F-induced IL-6 production [3]: dose-dependent inhibition

HFEVFNFVPSSISSNNPTSWAISKRI [GSRR, reference compound]
effect on LPS-induced cytokine production (IL-6, IL-1β) [8]: no effect

YFARGPGIHIRKR [HIV V3 loop control peptide, reference compound]
effect on LPS-induced cytokine production (IL-6, IL-1β) [8]: no effect
effect on F-induced IL-6 production [3]: inhibitory effect was not observed

bovine serum albumin [reference compound]
effect on F-induced IL-6 production [3]: no effect

— patent publication US20080025997A1, “Cysteine-rich region of respiratory syncytial virus and methods of use therefor” (priority 2004, published 2008)
